What was measured:
[1] = system: Akt/PKB phosphorylation in macrophages; test: Cell Based ELISA to Monitor PI3K Inhibition: Akt/PKB phosphorylation in Raw 264-7 macrophages after stimulation with C5a; conditions: Mus musculus, RAW264.7, 50 nM C5a, 5 minutes, 20 minutes pretreatment, read-out: inhibition of C5a-mediated AKT-phosphorylation
Protocol: b) Cell Based ELISA to Monitor PI3K Inhibition
Measurement of Akt/PKB phosphorylation in macrophages after stimulation with C5a: Raw 264: Raw 264-7 macrophages (cultured in DMEM-F12 medium containing 10%
Fetal Calf serum and antibiotics) are plated at 20'000 cells/well in a 96 MTP 24 h before cell stimulation. Previous to the stimulation with 50 nM of Complement 5a during 5 minutes, Cells are serum starved for 2 h, and pretreated with inhibitors for 20 minutes. After stimulation cells are fixed in 4% formaldehyde for 20 minutes and washed 3 times in PBS containing 1% Triton X-100 (PBS/Triton). Endogenous peroxidase is blocked by a 20 minutes incubation in 0.6% H2O2 and 0.1% Sodium Azide in PBS/Triton and washed 3 times in PBS/Triton. Cells are then blocked by 60 minutes incubation with 10% fetal calf serum in PBS/Triton. Next, phosphorylated Akt/PKB is detected by an overnight incubation at 4° C. with first antibody (anti phospho Serine 473 Akt IHC, Cell Signaling) diluted 800-fold in PBS/Triton, containing 5% bovine serum albumin (BSA). After 3 washes in PBS/Triton, cells are incubated for 60 minutes with a peroxidase conjugated goat-anti-rabbit antibody ( 1/400 dilution in PBS/Triton, containing 5% BSA), washed 3 times in PBS/Triton, and 2 times in PBS and further incubated in 100 μl of substrate reagent solution (R&D) for 20 minutes. The reaction is stopped by addition of 50 μI of 1 M SO4H2 and absorbance is read at 450 nm.
The values indicated reflect the percentage of inhibition of AKT phoshorylation as compared to basal level. Said values show a clear effect of the azolidinone-vinyl fused-benzene compounds on the activation of AKT phosphorylation in macrophages.

PI3Kγ = PI3Kγ (Homo sapiens, UniProt P48736); test: High Throughput PI3K Lipid Kinase Assay (Binding Assay), SPA with neomycin-coated beads; assay type: biochemical; conditions: Human recombinant GST-PI3Kγ; [33P]γ-ATP; 180 minutes, room temperature
Sequence of PI3Kγ (P48736 whole entry): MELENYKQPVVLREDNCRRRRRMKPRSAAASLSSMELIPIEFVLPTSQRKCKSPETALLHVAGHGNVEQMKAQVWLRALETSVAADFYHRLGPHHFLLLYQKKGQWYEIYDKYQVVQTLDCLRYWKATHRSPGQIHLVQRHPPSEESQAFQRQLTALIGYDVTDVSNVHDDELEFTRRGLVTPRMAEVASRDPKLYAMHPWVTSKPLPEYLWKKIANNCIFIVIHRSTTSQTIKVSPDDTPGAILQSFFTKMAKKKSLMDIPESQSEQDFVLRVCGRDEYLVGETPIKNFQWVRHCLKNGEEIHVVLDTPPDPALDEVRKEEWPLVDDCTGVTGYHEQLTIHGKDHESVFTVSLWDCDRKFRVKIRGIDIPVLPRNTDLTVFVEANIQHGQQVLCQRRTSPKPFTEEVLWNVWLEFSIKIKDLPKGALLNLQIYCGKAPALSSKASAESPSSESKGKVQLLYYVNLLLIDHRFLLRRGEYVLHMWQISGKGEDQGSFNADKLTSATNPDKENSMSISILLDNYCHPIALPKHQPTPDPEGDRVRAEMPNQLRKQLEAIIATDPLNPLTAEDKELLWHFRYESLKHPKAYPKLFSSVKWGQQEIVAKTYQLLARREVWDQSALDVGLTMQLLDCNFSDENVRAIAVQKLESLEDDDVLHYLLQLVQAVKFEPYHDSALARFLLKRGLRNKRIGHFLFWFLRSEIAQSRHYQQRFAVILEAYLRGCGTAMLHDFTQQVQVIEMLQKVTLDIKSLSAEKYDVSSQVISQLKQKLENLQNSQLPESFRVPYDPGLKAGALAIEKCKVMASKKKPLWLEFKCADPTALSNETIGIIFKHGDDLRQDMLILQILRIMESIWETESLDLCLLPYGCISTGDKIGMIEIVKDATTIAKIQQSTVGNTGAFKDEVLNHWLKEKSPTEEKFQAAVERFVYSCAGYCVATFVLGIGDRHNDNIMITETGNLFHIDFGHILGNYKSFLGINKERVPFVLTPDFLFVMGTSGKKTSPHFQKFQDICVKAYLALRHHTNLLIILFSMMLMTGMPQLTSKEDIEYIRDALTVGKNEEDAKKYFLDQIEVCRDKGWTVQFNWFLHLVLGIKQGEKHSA
Protocol: a) High Throughput PI3K Lipid Kinase Assay (Binding Assay)
The assay combines the scintillation proximity assay technology (SPA, Amersham) with the capacity of neomycin (a polycationic antibiotic) to bind phospholipids with high affinity and specificity. The Scintillation Proximity Assay is based on the properties of weakly emitting isotopes (such as ^3H, ^125I, ^33P). Coating SPA beads with neomycin allows the detection of phosphorylated lipid substrates after incubation with recombinant PI3K and radioactive ATP in the same well, by capturing the radioactive phospholipids to the SPA beads through their specific binding to neomycin.
To a 384 wells MTP containing 5 μl of a chemical compound library (containing 6% DMSO), the following assay components are added. 1) 5 μl (58 ng) of Human recombinant GST-PI3Kγ (in Hepes 40 mM, pH 7.4, DTT 1 mM and ethylenglycol 5%) 2) 10 μl of lipid micelles and 3) 10 μl of Kinase buffer ([^33P]γ-ATP 45 μM/60 nCi, MgCl2 30 mM, DTT 1 mM, P-Glycerophosphate 1 mM, NaVO4 100 μM, Na Cholate 0.3%, in Hepes 40 mM, pH 7.4). After incubation at room temperature for 180 minutes, with gentle agitation, the reaction is stopped by addition of 60 μl of a solution containing 100 μg of neomycin-coated PVT SPA beads in PBS containing ATP 10 mM and EDTA 5 mM. The assay is further incubated at room temperature for 60 minutes with gentle agitation to allow binding of phospholipids to neomycin-SPA beads. After precipitation of the neomycin-coated PVT SPA beads for 5 minutes at 1500×g, radioactive PtdIns(3)P is quantified by scintillation counting in a Wallac MicroBeta™ plate counter.
The values indicated in respect of PI3K γ refer to the IC50 (μM), i.e. the amount necessary to achieve 50% inhibition of said target. Said values show a considerable potency of the azolidinone-vinyl fused-benzene compounds with regard to PI3Kγ.

SMILES	inhibition at 10 µM [1] [%]	IC50 (PI3Kγ) [nM]
O=C1NC(=O)/C(=C/c2ccc3c(c2)OCO3)S1 [Example 1, (5Z)-5-(1,3-benzodioxol-5-ylmethylene)-1,3-thiazolidine-2,4-dione]	80	50
O=C1NC(=S)S/C1=C/c1ccc2c(c1)OCO2 [Example 2, (5E)-5-(1,3-benzodioxol-5-ylmethylene)-2-thioxo-1,3-thiazolidin-4-one]	80	60
O=C1NC(=O)/C(=C/c2ccc3c(c2)CCO3)S1 [Example 4, (5Z)-5-(2,3-dihydro-1-benzofuran-5-ylmethylene)-1,3-thiazolidine-2,4-dione]	80	–
CN1C(=O)COc2ccc(/C=C3\SC(=O)NC3=O)cc21 [Example 10, (5Z)-5-[(4-methyl-3-oxo-3,4-dihydro-2H-1,4-benzoxazin-6-yl)methylene]-1,3-thiazolidine-2,4-dione]	–	30
